Experimental data taken from ChEMBL document CHEMBL1201862, “PubChem BioAssay data set” (2004).
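1) Cells in 96-well plates. 2) Compound, 48 h, 5 concentrations. 3) Linear interpolation between surrounding doses. 4) Unreached endpoint = highest concentration. GI50 = concentration required for 50% inhibition of growth.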 Activity calls are given as the source filed them. Rule as the data show it: active = GI50 up to about 1.1 µM and inactive = higher.

How the values were obtained:
Assay in all cases: NCI anticancer screen, dose series, 48 h
[1] = tested on: DMS-114
[2] = tested on: COLO 205
[3] = tested on: SF-268
[4] = tested on: OVCAR-5
[5] = tested on: 786-0
[6] = tested on: XF498
[7] = tested on: HCT-116
[8] = tested on: NCI-H460
[9] = tested on: KM12
[10] = tested on: HOP-18
[11] = tested on: MOLT-4
[12] = tested on: M19-MEL
[13] = tested on: SNB-19
[14] = tested on: RPMI-8226
[15] = tested on: SR
[16] = tested on: RXF 631
[17] = tested on: HOP-62
[18] = tested on: K562
[19] = tested on: OVCAR-8
[20] = tested on: DLD-1
[21] = tested on: SK-MEL-28
[22] = tested on: SN12C
[23] = tested on: RXF 393
[24] = tested on: DMS-273
[25] = tested on: SF-295
[26] = tested on: A498
[27] = tested on: NCI-H23
[28] = tested on: M14
[29] = tested on: SK-OV-3
[30] = tested on: OVCAR-3
[31] = tested on: LOX IMVI
[32] = tested on: KM-20L2
[33] = tested on: SNB-78
[34] = tested on: ACHN
[35] = tested on: SK-MEL-5
[36] = tested on: UACC-257
[37] = tested on: CCRF-CEM
[38] = tested on: TK-10
[39] = tested on: SNB-75
[40] = tested on: NCI-H226
[41] = tested on: EKVX
[42] = tested on: HCC 2998
[43] = tested on: HT-29
[44] = tested on: SW-620
[45] = tested on: Malme-3M
[46] = tested on: LXFL 529
[47] = tested on: IGROV-1
[48] = tested on: NCI-H522
[49] = tested on: HL-60
[50] = tested on: UO-31
[51] = tested on: CAKI-1
[52] = tested on: HCT-15
[53] = tested on: SK-MEL-2
[54] = tested on: A549
[55] = tested on: UACC-62
[56] = tested on: HOP-92
[57] = tested on: U-251
[58] = tested on: OVCAR-4
[59] = tested on: SF-539

**Q.** How did the GI50 [1] turn out when CC1(C)C(=O)N(c2ccccc2)C(=O)N1c1nc2ccccc2[nH]1 was run?
**A.** 38.7 µM (inactive)

**Q.** What about the GI50 [2] of the same molecule?
**A.** 49.7 µM (inactive)

**Q.** And the GI50 [3]?
**A.** > 100 µM (inactive)

**Q.** What about the GI50 [4] of the same molecule?
**A.** > 100 µM (inactive)

**Q.** What about the GI50 [5] of the same molecule?
**A.** > 100 µM (inactive)

**Q.** And the GI50 [6]?
**A.** 92.7 µM (inactive)

**Q.** And the GI50 [7]?
**A.** 37.4 µM (inactive)

**Q.** And the GI50 [8]?
**A.** 71.9 µM (inactive)

**Q.** What about the GI50 [9] of the same molecule?
**A.** > 100 µM (inactive)

**Q.** And the GI50 [10]?
**A.** > 100 µM (inactive)

**Q.** What about the GI50 [11] of the same molecule?
**A.** 40.9 µM (inactive)

**Q.** What about the GI50 [12] of the same molecule?
**A.** > 100 µM (inactive)

**Q.** And the GI50 [13]?
**A.** > 100 µM (inactive)

**Q.** What about the GI50 [14] of the same molecule?
**A.** 33.7 µM (inactive)

**Q.** And the GI50 [15]?
**A.** 78.7 µM (inactive)

**Q.** What about the GI50 [16] of the same molecule?
**A.** > 100 µM (inactive)

**Q.** And the GI50 [17]?
**A.** > 100 µM (inactive)

**Q.** And the GI50 [18]?
**A.** 53.6 µM (inactive)

**Q.** And the GI50 [19]?
**A.** > 100 µM (inactive)

**Q.** What about the GI50 [20] of the same molecule?
**A.** > 100 µM (inactive)

**Q.** What about the GI50 [21] of the same molecule?
**A.** > 100 µM (inactive)

**Q.** And the GI50 [22]?
**A.** > 100 µM (inactive)

**Q.** What about the GI50 [23] of the same molecule?
**A.** > 100 µM (inactive)

**Q.** And the GI50 [24]?
**A.** > 100 µM (inactive)

**Q.** And the GI50 [25]?
**A.** > 100 µM (inactive)

**Q.** And the GI50 [26]?
**A.** > 100 µM (inactive)

**Q.** What about the GI50 [27] of the same molecule?
**A.** > 100 µM (inactive)

**Q.** And the GI50 [28]?
**A.** > 100 µM (inactive)

**Q.** What about the GI50 [29] of the same molecule?
**A.** > 100 µM (inactive)

**Q.** What about the GI50 [30] of the same molecule?
**A.** > 100 µM (inactive)

**Q.** What about the GI50 [31] of the same molecule?
**A.** 85.9 µM (inactive)

**Q.** What about the GI50 [32] of the same molecule?
**A.** > 100 µM (inactive)

**Q.** What about the GI50 [33] of the same molecule?
**A.** > 100 µM (inactive)

**Q.** And the GI50 [34]?
**A.** > 100 µM (inactive)

**Q.** What about the GI50 [35] of the same molecule?
**A.** > 100 µM (inactive)

**Q.** And the GI50 [36]?
**A.** > 100 µM (inactive)

**Q.** And the GI50 [37]?
**A.** 21.4 µM (inactive)

**Q.** And the GI50 [38]?
**A.** > 100 µM (inactive)

**Q.** What about the GI50 [39] of the same molecule?
**A.** > 100 µM (inactive)

**Q.** What about the GI50 [40] of the same molecule?
**A.** > 100 µM (inactive)

**Q.** And the GI50 [41]?
**A.** > 100 µM (inactive)

**Q.** And the GI50 [42]?
**A.** > 100 µM (inactive)

**Q.** And the GI50 [43]?
**A.** 65.6 µM (inactive)

**Q.** And the GI50 [44]?
**A.** 17.4 µM (inactive)

**Q.** And the GI50 [45]?
**A.** > 100 µM (inactive)

**Q.** What about the GI50 [46] of the same molecule?
**A.** 85.3 µM (inactive)

**Q.** And the GI50 [47]?
**A.** > 100 µM (inactive)

**Q.** And the GI50 [48]?
**A.** 54.7 µM (inactive)

**Q.** What about the GI50 [49] of the same molecule?
**A.** 63.2 µM (inactive)

**Q.** What about the GI50 [50] of the same molecule?
**A.** > 100 µM (inactive)

**Q.** And the GI50 [51]?
**A.** > 100 µM (inactive)

**Q.** And the GI50 [52]?
**A.** 94.2 µM

**Q.** What about the GI50 [53] of the same molecule?
**A.** > 100 µM (inactive)

**Q.** What about the GI50 [54] of the same molecule?
**A.** > 100 µM (inactive)

**Q.** What about the GI50 [55] of the same molecule?
**A.** > 100 µM (inactive)

**Q.** What about the GI50 [56] of the same molecule?
**A.** > 100 µM (inactive)

**Q.** What does the source list for CNC1=Nc2ccc(Cl)cc2C(OP(=O)(N2CCOCC2)N2CCOCC2)=NC1?
**A.** GI50 [1]: > 100 µM (inactive); GI50 [57]: > 100 µM (inactive); GI50 [4]: > 100 µM (inactive); GI50 [5]: > 100 µM (inactive); GI50 [6]: > 100 µM (inactive); GI50 [7]: > 100 µM (inactive); GI50 [58]: > 100 µM (inactive); GI50 [8]: > 100 µM (inactive); GI50 [9]: > 100 µM (inactive); GI50 [10]: > 100 µM (inactive); GI50 [11]: > 100 µM (inactive); GI50 [12]: > 100 µM (inactive); GI50 [13]: > 100 µM (inactive); GI50 [14]: > 100 µM (inactive); GI50 [15]: > 100 µM (inactive); GI50 [16]: > 100 µM (inactive); GI50 [18]: > 100 µM (inactive); GI50 [19]: > 100 µM (inactive); GI50 [20]: > 100 µM (inactive); GI50 [21]: > 100 µM (inactive); GI50 [22]: > 100 µM (inactive); GI50 [23]: > 100 µM (inactive); GI50 [24]: > 100 µM (inactive); GI50 [25]: > 100 µM (inactive); GI50 [26]: > 100 µM (inactive); GI50 [27]: > 100 µM (inactive); GI50 [28]: > 100 µM (inactive); GI50 [30]: > 100 µM (inactive); GI50 [31]: > 100 µM (inactive); GI50 [32]: > 100 µM (inactive); GI50 [33]: > 100 µM (inactive); GI50 [34]: > 100 µM (inactive); GI50 [35]: > 100 µM (inactive); GI50 [36]: > 100 µM (inactive); GI50 [37]: > 100 µM (inactive); GI50 [38]: > 100 µM (inactive); GI50 [39]: > 100 µM (inactive); GI50 [40]: > 100 µM (inactive); GI50 [41]: 84.9 µM (inactive); GI50 [42]: > 100 µM (inactive); GI50 [43]: > 100 µM (inactive); GI50 [44]: > 100 µM (inactive); GI50 [45]: > 100 µM (inactive); GI50 [46]: > 100 µM (inactive); GI50 [48]: 26.5 µM (inactive); GI50 [49]: > 100 µM (inactive); GI50 [50]: > 100 µM (inactive); GI50 [51]: > 100 µM (inactive); GI50 [52]: > 100 µM; GI50 [53]: > 100 µM (inactive); GI50 [54]: > 100 µM (inactive); GI50 [59]: > 100 µM (inactive); GI50 [55]: > 100 µM (inactive)
